Measurements reported in ChEMBL document CHEMBL1131172 (J Med Chem, 1998).

How the values were obtained:
Dihydrofolate reductase [1] = target: T1, Dihydrofolate reductase (Pneumocystis carinii, UniProt P16184)
T1 sequence (P16184 whole entry): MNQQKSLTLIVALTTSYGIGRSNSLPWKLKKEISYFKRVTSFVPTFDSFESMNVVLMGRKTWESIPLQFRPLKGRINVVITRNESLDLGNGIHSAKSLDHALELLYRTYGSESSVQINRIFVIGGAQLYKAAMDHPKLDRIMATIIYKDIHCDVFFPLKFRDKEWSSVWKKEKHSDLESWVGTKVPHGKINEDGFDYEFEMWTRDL
Description: Inhibitory activity against dihydrofolate reductase (DHFR) from Pneumocystis carinii

NCI-H23 [2] = assay: inhibition of the growth of non-small-cell lung cancer (NCI-H23) cell line; type: functional; details: Homo sapiens
SF-295 [3] = assay: inhibition of the growth of CNS cancer(SF-295) cell line; type: functional; details: Homo sapiens
IGROV-1 [4] = assay: Inhibition of the growth of ovarian cancer(IGROVI) cell line at 0.01 uM; type: functional; details: Homo sapiens
HCT-116 [5] = assay: Inhibition of the growth of colon cancer(HCT116) cell line at 0.01 uM; type: functional; details: Homo sapiens
KM12 = assay: inhibition of the growth of colon cancer(KM-12) cell line; type: functional; details: Homo sapiens
DU-145 = assay: inhibition of the growth of prostate cancer(DU-145) cell line; type: functional; details: Homo sapiens
MDA-MB-435 [6] = assay: inhibition of the growth of breast cancer (MDA-MB-435) cell line; type: functional; details: Homo sapiens
[7] = target: T2, Bifunctional dihydrofolate reductase-thymidylate synthase (Toxoplasma gondii, UniProt Q07422)
T2 sequence (Q07422 whole entry): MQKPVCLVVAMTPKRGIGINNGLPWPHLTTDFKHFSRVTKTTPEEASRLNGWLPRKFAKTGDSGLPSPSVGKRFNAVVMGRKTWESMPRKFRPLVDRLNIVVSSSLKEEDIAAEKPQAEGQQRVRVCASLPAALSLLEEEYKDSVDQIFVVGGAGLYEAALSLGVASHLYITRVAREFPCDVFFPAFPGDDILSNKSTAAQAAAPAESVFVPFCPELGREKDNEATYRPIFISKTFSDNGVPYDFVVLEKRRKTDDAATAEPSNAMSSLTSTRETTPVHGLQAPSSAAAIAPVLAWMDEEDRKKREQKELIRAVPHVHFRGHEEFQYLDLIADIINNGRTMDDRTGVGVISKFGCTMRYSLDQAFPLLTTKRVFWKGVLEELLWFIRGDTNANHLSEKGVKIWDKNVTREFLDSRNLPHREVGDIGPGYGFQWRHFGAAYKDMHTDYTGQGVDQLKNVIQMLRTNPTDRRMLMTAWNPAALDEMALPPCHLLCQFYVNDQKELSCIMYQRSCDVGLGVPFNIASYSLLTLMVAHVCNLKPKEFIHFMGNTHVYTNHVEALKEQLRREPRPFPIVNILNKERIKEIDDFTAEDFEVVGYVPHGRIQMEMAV
Description: Inhibitory activity against dihydrofolate reductase (DHFR) from Toxoplasma gondii

MDA-N [8] = assay: Inhibition of the growth of breast cancer(MDA-N) cell line at 0.01 uM; type: functional; details: Homo sapiens
OVCAR-8 [9] = assay: inhibition of the growth of ovarian cancer(OVCAR-8) cell line; type: functional; details: Homo sapiens
UO-31 [10] = assay: inhibition of the growth of renal cancer(UO-31) cell line at 0.01 uM; type: functional; details: Homo sapiens
NCI-H460 [11] = assay: inhibition of the growth of non-small-cell lung cancer (NCI-H460) cell line; type: functional; details: Homo sapiens
MDA-MB-435 [12] = assay: Inhibition of the growth of breast cancer (MDA-MB-435) cell line at 0.01 uM; type: functional; details: Homo sapiens
UO-31 [13] = assay: inhibition of the growth of renal cancer(UO-31) cell line; type: functional; details: Homo sapiens
OVCAR-8 [14] = assay: Inhibition of the growth of ovarian cancer(OVCAR-8) cell line at 0.01 uM; type: functional; details: Homo sapiens
RPMI-8226 [15] = assay: Inhibition of the growth of leukemia (RPMI-8226) cell line at 0.01 uM; type: functional; details: Homo sapiens
RPMI-8226 [16] = assay: inhibition of the growth of leukemia (RPMI-8226) cell line; type: functional; details: Homo sapiens
NCI-H23 [17] = assay: Inhibition of the growth of non-small-cell lung cancer (NCI-H23) cell line at 0.01 uM; type: functional; details: Homo sapiens
NCI-H460 [18] = assay: Inhibition of the growth of non-small-cell lung cancer (NCI-H460) cell line at 0.01 uM; type: functional; details: Homo sapiens
MOLT-4 = assay: inhibition of the growth of leukemia (MOLT-4) cell line; type: functional; details: Homo sapiens
SF-539 = assay: inhibition of the growth of CNS cancer(SF-539) cell line; type: functional; details: Homo sapiens
A549 [19] = assay: Inhibition of the growth of non-small-cell lung cancer (A549/ATCC) cell line at 0.01 uM; type: functional; details: Homo sapiens
SF-295 [20] = assay: Inhibition of the growth of CNS cancer(SF-295) cell line at 0.01 uM; type: functional; details: Homo sapiens
HCT-15 [21] = assay: inhibition of the growth of colon cancer(HCT-15) cell line; type: functional; details: Homo sapiens
Dihydrofolate reductase [22] = target: T3, Dihydrofolate reductase (Rattus norvegicus, UniProt Q920D2)
T3 sequence (Q920D2 whole entry): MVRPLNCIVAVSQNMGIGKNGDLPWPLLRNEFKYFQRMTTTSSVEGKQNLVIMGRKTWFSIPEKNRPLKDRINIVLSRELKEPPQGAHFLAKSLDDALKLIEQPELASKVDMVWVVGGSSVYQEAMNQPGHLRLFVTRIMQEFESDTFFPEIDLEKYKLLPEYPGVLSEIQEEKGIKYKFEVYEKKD
Description: Inhibitory activity against dihydrofolate reductase (DHFR) from rat liver

SK-MEL-5 [23] = assay: inhibition of the growth of melanoma cancer (SK-MEL-5) cell line; type: functional; details: Homo sapiens
SNB-19 [24] = assay: Inhibition of the growth of CNS cancer(SNB-19) cell line at 0.01 uM; type: functional; details: Homo sapiens
NCI-H522 = assay: inhibition of the growth of non-small-cell lung cancer (NCI-H522) cell line; type: functional; details: Homo sapiens
SF-268 [25] = assay: Inhibition of the growth of CNS cancer(SF-268) cell line at 0.01 uM; type: functional; details: Homo sapiens
MCF7 = assay: inhibition of the growth of breast cancer (MCF-7) cell line; type: functional; details: Homo sapiens
SF-268 [26] = assay: inhibition of the growth of CNS cancer(SF-268) cell line; type: functional; details: Homo sapiens
M14 = assay: inhibition of the growth of melanoma cancer (M14) cell line; type: functional; details: Homo sapiens
HCT-15 [27] = assay: Inhibition of the growth of colon cancer(HCT-15) cell line at 0.01 uM; type: functional; details: Homo sapiens
A549 [28] = assay: inhibition of the growth of non-small-cell lung cancer (A549/ATCC) cell line; type: functional; details: Homo sapiens
IGROV-1 [29] = assay: inhibition of the growth of ovarian cancer(IGROVI) cell line; type: functional; details: Homo sapiens
NCI-H322M = assay: inhibition of the growth of non-small-cell lung cancer (NCI-H322M) cell line; type: functional; details: Homo sapiens
SNB-19 [30] = assay: inhibition of the growth of CNS cancer(SNB-19) cell line; type: functional; details: Homo sapiens
NCI/ADR-RES = assay: inhibition of the growth of breast cancer (MCF7/ADR-RES) cell line; type: functional; details: Homo sapiens
786-0 = assay: inhibition of the growth of renal cancer(786-0) cell line; type: functional; details: Homo sapiens
SK-MEL-5 [31] = assay: Inhibition of the growth of melanoma cancer (SK-MEL-5) cell line at 0.01 uM; type: functional; details: Homo sapiens
MDA-N [32] = assay: inhibition of the growth of breast cancer(MDA-N) cell line; type: functional; details: Homo sapiens
CAKI-1 = assay: inhibition of the growth of renal cancer(CAKI-1) cell line; type: functional; details: Homo sapiens
HCT-116 [33] = assay: inhibition of the growth of colon cancer(HCT116) cell line; type: functional; details: Homo sapiens
SR = assay: inhibition of the growth of leukemia(SR) cell line; type: functional; details: Homo sapiens

IC50 (Dihydrofolate reductase [1]): 0.021 µM | GI50 (NCI-H23 [2]): < 0.01 µM | GI50 (DU-145): 0.22 µM | GI50 (MDA-MB-435 [6]): < 0.01 µM | GI50 (OVCAR-8 [9]): < 0.01 µM | GI50 (NCI-H460 [11]): < 0.01 µM | GI50 (RPMI-8226 [16]): < 0.01 µM | GI50 (MOLT-4): 0.04 µM | GI50 (HCT-15 [21]): < 0.01 µM | IC50 (Dihydrofolate reductase [22]): 0.0037 µM | GI50 (SK-MEL-5 [23]): < 0.01 µM | GI50 (NCI-H522): 0.03 µM | GI50 (MCF7): 0.04 µM | GI50 (A549 [28]): < 0.01 µM | GI50 (NCI-H322M): 11 µM | GI50 (786-0): 0.02 µM | GI50 (HCT-116 [33]): < 0.01 µM
Compound: COc1cc(N(C)c2ccc3nc(N)nc(N)c3n2)cc(OC)c1OC
GI50 (SF-295 [3]): < 0.01 µM | inhibition at 0.01 µM (IGROV-1 [4]): 52% | inhibition at 0.01 µM (HCT-116 [5]): 76% | GI50 (KM12): 0.04 µM | IC50 [7]: 0.0076 µM | inhibition at 0.01 µM (MDA-N [8]): 58% | inhibition at 0.01 µM (UO-31 [10]): 65% | inhibition at 0.01 µM (MDA-MB-435 [12]): 56% | GI50 (UO-31 [13]): < 0.01 µM | inhibition at 0.01 µM (OVCAR-8 [14]): 57% | inhibition at 0.01 µM (RPMI-8226 [15]): 56% | inhibition at 0.01 µM (NCI-H23 [17]): 51% | inhibition at 0.01 µM (NCI-H460 [18]): 79% | GI50 (SF-539): 0.02 µM | inhibition at 0.01 µM (A549 [19]): 67% | inhibition at 0.01 µM (SF-295 [20]): 53% | inhibition at 0.01 µM (SNB-19 [24]): 53% | inhibition at 0.01 µM (SF-268 [25]): 61% | GI50 (SF-268 [26]): < 0.01 µM | GI50 (M14): 0.02 µM | inhibition at 0.01 µM (HCT-15 [27]): 57% | GI50 (IGROV-1 [29]): < 0.01 µM | GI50 (SNB-19 [30]): < 0.01 µM | GI50 (NCI/ADR-RES): 0.01 µM | inhibition at 0.01 µM (SK-MEL-5 [31]): 60% | GI50 (MDA-N [32]): < 0.01 µM | GI50 (CAKI-1): 0.01 µM | GI50 (SR): 0.03 µM
